Test results from patent publication US7776858B2, “Methods of treatment of chronic pain using eszopiclone” (Sepracor Inc., priority 2004, dated 2010).

How the values were obtained:
conscious dogs = assay: Dose escalation safety study, cardiovascular and respiratory parameters after acute intravenous administration
Protocol: To establish the safety of eszopiclone, a dose escalation study was carried out. Cardiovascular and respiratory parameters were evaluated in conscious dogs following acute intravenous administration of (R)-, (S)- or racemic zopiclone at three doses (3, 5 and 12 mg/kg).

mice = assay: Antagonism of oxotremorine induced salivation; type: in vivo; settings: doses up to 300 mg/kg, p.o.
Protocol: Eszopiclone was evaluated for antimuscarinic activity in vivo.

[1] = acute intravenous, 3, 5 and 12 mg/kg

Compound: CN1CCN(C(=O)O[C@@H]2c3nccnc3C(=O)N2c2ccc(Cl)cn2)CC1 [(R)-Zopiclone]
- hemodynamic effect (conscious dogs; acute intravenous, 12 mg/kg): did not produce a consistent hemodynamic effect
- Blood gases and blood chemistries (pH, pCO2, pO2, hematocrit, and lactate) (conscious dogs; [1]): remained unaffected
- cardiotoxicity by electrocardiogram (ECG) (conscious dogs; [1]): No evidence of cardiotoxicity
- antagonism of oxotremorine induced salivation (mice): neither (R)-, (S)-, nor racemic zopiclone significantly antagonized
